Article PMC7577350 (ACS chemical biology, 2013)
Like-named read-outs stand apart in the source and are kept apart here. Numbered stars: 1 amine (or outer) side, 2 acyl side, 3 side chain; on linkers, the order of the positions; unused ones are H or OH. Bridge positions count the residues as written; N and C are the ends. Square brackets hold non-standard residues; d marks the D form. Peptide text beside a SMILES is read from it. Nle(6-ylidene) = O=C([C@H](CCCC=[*:3])N[*:1])[*:2]; Gly(pent-4-enyl) = C=CCCC[C@H](N)C(=O)O

Tests used:
MTT cytotoxicity assay = format: cell-based
HIV-1 NL4-3 = test: MT-4 Luc assay; format: cell-based; conditions: MT-4 Luc cells; for concentrations at which significant anti-HIV activity was shown: luciferase signal
HIV-1 IN [1] = biological target: T1, HIV-1 IN (Human immunodeficiency virus type 1 group M subtype B, UniProt P04585); test: Integrase assay, 3′-end processing reaction; format: biochemical
HIV-1 (NL4-3 strain) [2] = format: cell-based; conditions: read-out: EC50 (μM) p24 assay, MT-4 cells
HIV-1 IN [3] = biological target: T1, HIV-1 IN; test: Integrase assay, strand transfer reaction; format: biochemical
HIV-1 (NL4-3 strain) [4] = test: MTT anti-HIV assay; format: cell-based; conditions: read-out: EC50 (μM) MTT assay; MT-4 cells, HIV-1 NL4-3, Table 3
[5] = CC50 (μM) MTT assay, mock infected MT-4 cells, Table 4
[6] = CC50 (μM) MTT assay, mock infected MT-4 cells, Table 3
[7] = both 3′-end processing and strand transfer reactions

CC[C@H](C)[C@H](NC(=O)[C@H](C)NC(=O)[C@H](CCC(=O)O)NC(C)=O)C(=O)N[C@H]1CCCC=CCCC[C@@H](C(=O)N[C@@H](CCC(N)=O)C(=O)N[C@@H](CC(C)C)C(=O)N[C@@H](CC(C)C)C(=O)N[C@@H](Cc2ccccc2)C(=O)N[C@H](C(=O)N[C@@H](Cc2c[nH]cn2)C(=O)N[C@@H](Cc2ccccc2)C(=O)N[C@@H](CCCNC(=N)N)C(=O)N[C@H](C(=O)NCC(=O)N[C@@H](CCCNC(=N)N)C(=O)N[C@@H](CCCNC(=N)N)C(=O)N[C@@H](CCCNC(=N)N)C(=O)N[C@@H](CCCNC(=N)N)C(=O)N[C@@H](CCCNC(=N)N)C(=O)N[C@@H](CCCNC(=N)N)C(=O)N[C@@H](CCCNC(=N)N)C(N)=O)[C@@H](C)CC)[C@@H](C)CC)NC(=O)[C@H](CC(C)C)NC(=O)[C@H]([C@@H](C)CC)NC(=O)[C@H](CCCNC(=N)N)NC1=O [compound 23] (Ac-EAI[Nle(6-ylidene)]RIL[Nle(6-ylidene)]QLLFIHFRIGRRRRRRR-NH2; staple 4-8)
CC50 (MTT cytotoxicity assay; [5]): 12 µM

CC[C@H](C)[C@H](NC(=O)[C@H](C)NC(=O)[C@H](CCC(=O)O)NC(C)=O)C(=O)N[C@H]1CCCC=CCCC[C@@H](C(=O)N[C@@H](CCC(N)=O)C(=O)N[C@@H](CC(C)C)C(=O)N[C@@H](CC(C)C)C(=O)N[C@@H](Cc2ccccc2)C(=O)N[C@H](C(=O)N[C@@H](Cc2c[nH]cn2)C(=O)N[C@@H](Cc2ccccc2)C(=O)N[C@@H](CCCNC(=N)N)C(=O)N[C@H](C(=O)NCC(=O)N[C@@H](CCCNC(=N)N)C(=O)N[C@@H](CCCNC(=N)N)C(=O)N[C@@H](CCCNC(=N)N)C(=O)N[C@@H](CCCNC(=N)N)C(=O)N[C@@H](CCCNC(=N)N)C(=O)N[C@@H](CCCNC(=N)N)C(=O)N[C@@H](CCCNC(=N)N)C(=O)N[C@@H](CCCNC(=N)N)C(N)=O)[C@@H](C)CC)[C@@H](C)CC)NC(=O)[C@H](CC(C)C)NC(=O)[C@H]([C@@H](C)CC)NC(=O)[C@H](CCCNC(=N)N)NC1=O [compound 17] (Ac-EAI[Nle(6-ylidene)]RIL[Nle(6-ylidene)]QLLFIHFRIGRRRRRRRR-NH2; staple 4-8)
CC50 (MTT cytotoxicity assay; [6]): 7.04 µM
CC50 (MTT cytotoxicity assay; [5]): 6.9 µM
concentrations at which significant anti-HIV activity was shown (HIV-1 NL4-3): above 1.25 μM

CC[C@H](C)[C@H](NC(=O)[C@H](C)NC(=O)[C@H](CCC(=O)O)NC(C)=O)C(=O)N[C@H]1CCCC=CCCC[C@@H](C(=O)N[C@@H](CCC(N)=O)C(=O)N[C@@H](CC(C)C)C(=O)N[C@@H](CC(C)C)C(=O)N[C@@H](Cc2ccccc2)C(=O)N[C@H](C(=O)N[C@@H](Cc2c[nH]cn2)C(=O)N[C@@H](Cc2ccccc2)C(=O)N[C@@H](CCCNC(=N)N)C(=O)N[C@H](C(=O)NCC(=O)N[C@@H](CCCNC(=N)N)C(=O)N[C@@H](CCC(=O)O)C(=O)N[C@@H](CCCNC(=N)N)C(=O)N[C@@H](CCC(=O)O)C(=O)N[C@@H](CCCNC(=N)N)C(=O)N[C@@H](CCC(=O)O)C(=O)N[C@@H](CCCNC(=N)N)C(=O)N[C@@H](CCC(=O)O)C(N)=O)[C@@H](C)CC)[C@@H](C)CC)NC(=O)[C@H](CC(C)C)NC(=O)[C@H]([C@@H](C)CC)NC(=O)[C@H](CCCNC(=N)N)NC1=O [compound 18] (Ac-EAI[Nle(6-ylidene)]RIL[Nle(6-ylidene)]QLLFIHFRIGRERERERE-NH2; staple 4-8)
CC50 (MTT cytotoxicity assay; [6]): > 10 µM
concentrations at which significant anti-HIV activity was shown (HIV-1 NL4-3): above 5 μM

C=CCCC[C@H](NC(=O)[C@H](CC(C)C)NC(=O)[C@@H](NC(=O)[C@H](CCCNC(=N)N)NC(=O)[C@H](CCCC=C)NC(=O)[C@@H](NC(=O)[C@H](C)NC(=O)[C@H](CCC(=O)O)NC(C)=O)[C@@H](C)CC)[C@@H](C)CC)C(=O)N[C@@H](CCC(N)=O)C(=O)N[C@@H](CC(C)C)C(=O)N[C@@H](CC(C)C)C(=O)N[C@@H](Cc1ccccc1)C(=O)N[C@H](C(=O)N[C@@H](Cc1c[nH]cn1)C(=O)N[C@@H](Cc1ccccc1)C(=O)N[C@@H](CCCNC(=N)N)C(=O)N[C@H](C(=O)NCC(=O)N[C@@H](CCCNC(=N)N)C(=O)N[C@@H](CCC(=O)O)C(=O)N[C@@H](CCCNC(=N)N)C(=O)N[C@@H](CCC(=O)O)C(=O)N[C@@H](CCCNC(=N)N)C(=O)N[C@@H](CCC(=O)O)C(=O)N[C@@H](CCCNC(=N)N)C(=O)N[C@@H](CCC(=O)O)C(N)=O)[C@@H](C)CC)[C@@H](C)CC [compound 19] (Ac-EAI[Gly(pent-4-enyl)]RIL[Gly(pent-4-enyl)]QLLFIHFRIGRERERERE-NH2)
CC50 (MTT cytotoxicity assay; [6]): > 10 µM
concentrations at which significant anti-HIV activity was shown (HIV-1 NL4-3): 10 µM

CC[C@H](C)[C@H](NC(=O)[C@H](C)NC(=O)[C@H](CCC(=O)O)NC(C)=O)C(=O)N[C@H]1CCCC=CCCC[C@@H](C(=O)N[C@@H](CCC(N)=O)C(=O)N[C@@H](CC(C)C)C(=O)N[C@@H](CC(C)C)C(=O)N[C@@H](Cc2ccccc2)C(=O)N[C@H](C(=O)N[C@@H](Cc2c[nH]cn2)C(=O)N[C@@H](Cc2ccccc2)C(=O)N[C@@H](CCCNC(=N)N)C(=O)N[C@H](C(=O)NCC(=O)N[C@@H](CCCNC(=N)N)C(=O)N[C@@H](CCCNC(=N)N)C(=O)N[C@@H](CCCNC(=N)N)C(=O)N[C@@H](CCCNC(=N)N)C(=O)N[C@@H](CCCNC(=N)N)C(N)=O)[C@@H](C)CC)[C@@H](C)CC)NC(=O)[C@H](CC(C)C)NC(=O)[C@H]([C@@H](C)CC)NC(=O)[C@H](CCCNC(=N)N)NC1=O [compound 21] (Ac-EAI[Nle(6-ylidene)]RIL[Nle(6-ylidene)]QLLFIHFRIGRRRRR-NH2; staple 4-8)
CC50 (MTT cytotoxicity assay; [5]): 15 µM
× higher inhibition than compound 6S (HIV-1 IN [1]; [7]): 3–6 ×

CC[C@H](C)[C@H](NC(=O)[C@H](C)NC(=O)[C@H](CCC(=O)O)NC(C)=O)C(=O)N[C@H]1CCCC=CCCC[C@@H](C(=O)N[C@@H](CCC(N)=O)C(=O)N[C@@H](CC(C)C)C(=O)N[C@@H](CC(C)C)C(=O)N[C@@H](Cc2ccccc2)C(=O)N[C@H](C(=O)N[C@@H](Cc2c[nH]cn2)C(=O)N[C@@H](Cc2ccccc2)C(=O)N[C@@H](CCCNC(=N)N)C(=O)N[C@H](C(=O)NCC(=O)N[C@@H](CCCNC(=N)N)C(=O)N[C@@H](CCCNC(=N)N)C(=O)N[C@@H](CCCNC(=N)N)C(=O)N[C@@H](CCCNC(=N)N)C(=O)N[C@@H](CCCNC(=N)N)C(=O)N[C@@H](CCCNC(=N)N)C(N)=O)[C@@H](C)CC)[C@@H](C)CC)NC(=O)[C@H](CC(C)C)NC(=O)[C@H]([C@@H](C)CC)NC(=O)[C@H](CCCNC(=N)N)NC1=O [compound 22] (Ac-EAI[Nle(6-ylidene)]RIL[Nle(6-ylidene)]QLLFIHFRIGRRRRRR-NH2; staple 4-8)
CC50 (MTT cytotoxicity assay; [5]): 13 µM
× higher inhibitory levels than compounds 20 and 21 (HIV-1 IN [1]; both reactions): 2 ×

CC[C@H](C)[C@H](NC(=O)[C@H](C)NC(=O)[C@H](CCC(=O)O)NC(C)=O)C(=O)N[C@H](C(=O)N[C@@H](CCCNC(=N)N)C(=O)N[C@H](C(=O)N[C@@H](CC(C)C)C(=O)N[C@@H](CCC(N)=O)C(=O)N[C@@H](CCC(N)=O)C(=O)N[C@@H](CC(C)C)C(=O)N[C@@H](CC(C)C)C(=O)N[C@@H](Cc1ccccc1)C(=O)N[C@H](C(=O)N[C@@H](Cc1c[nH]cn1)C(=O)N[C@@H](Cc1ccccc1)C(=O)N[C@@H](CCCNC(=N)N)C(=O)N[C@H](C(=O)NCC(N)=O)[C@@H](C)CC)[C@@H](C)CC)[C@@H](C)CC)[C@@H](C)CC [compound 1]
EC50 (HIV-1 (NL4-3 strain) [2]; HIV-1 NL4-3, Table 3): > 10 µM
EC50 (HIV-1 (NL4-3 strain) [2]; HIV-1 NL4-3, Table 4): > 20 µM
IC50 (HIV-1 IN [3]; IC50 (μM) strand transfer, Table 3 batch): 1.34 ± 0.2 µM
IC50 (HIV-1 IN [3]; IC50 (μM) strand transfer, Table 4 batch): 2.2 ± 0.2 µM
IC50 (HIV-1 IN [3]; IC50 strand transfer, Table 2): 1.1 ± 0.08 µM
EC50 (HIV-1 (NL4-3 strain) [4]): > 10 µM
CC50 (MTT cytotoxicity assay; [6]): > 10 µM
IC50 (HIV-1 IN [1]; IC50 3′-end processing, Table 2): 2.6 ± 0.2 µM
IC50 (HIV-1 IN [1]; IC50 (μM) 3′-end processing, Table 3 batch): 1.62 ± 0.26 µM
IC50 (HIV-1 IN [1]; IC50 (μM) 3′-end processing, Table 4 batch): 2 ± 0.2 µM
anti-HIV activity at concentrations below 10 μM (HIV-1 NL4-3; below 10 μM): no significant anti-HIV activity

CC[C@H](C)[C@H](NC(=O)[C@H](C)NC(=O)[C@H](CCC(=O)O)NC(C)=O)C(=O)N[C@H](C(=O)N[C@@H](CCCNC(=N)N)C(=O)N[C@H](C(=O)N[C@@H](CC(C)C)C(=O)N[C@@H](CCC(N)=O)C(=O)N[C@@H](CCC(N)=O)C(=O)N[C@@H](CC(C)C)C(=O)N[C@@H](CC(C)C)C(=O)N[C@@H](Cc1ccccc1)C(=O)N[C@H](C(=O)N[C@@H](Cc1c[nH]cn1)C(=O)N[C@@H](Cc1ccccc1)C(=O)N[C@@H](CCCNC(=N)N)C(=O)N[C@H](C(=O)NCC(=O)N[C@@H](CCCNC(=N)N)C(=O)N[C@@H](CCCNC(=N)N)C(=O)N[C@@H](CCCNC(=N)N)C(=O)N[C@@H](CCCNC(=N)N)C(=O)N[C@@H](CCCNC(=N)N)C(=O)N[C@@H](CCCNC(=N)N)C(=O)N[C@@H](CCCNC(=N)N)C(=O)N[C@@H](CCCNC(=N)N)C(N)=O)[C@@H](C)CC)[C@@H](C)CC)[C@@H](C)CC)[C@@H](C)CC [compound 2]
CC50 (MTT cytotoxicity assay): 5.91 µM
inhibitory levels × higher than those of compound 1 (HIV-1 IN [1]; [7]): approximately 30 ×
concentrations at which significant anti-HIV activity was shown (HIV-1 NL4-3): above 2.5 μM

CC[C@H](C)[C@H](NC(=O)[C@H](C)NC(=O)[C@H](CCC(=O)O)NC(C)=O)C(=O)N[C@H]1CCCC=CCCC[C@@H](C(=O)N[C@@H](CCC(N)=O)C(=O)N[C@@H](CC(C)C)C(=O)N[C@@H](CC(C)C)C(=O)N[C@@H](Cc2ccccc2)C(=O)N[C@H](C(=O)N[C@@H](Cc2c[nH]cn2)C(=O)N[C@@H](Cc2ccccc2)C(=O)N[C@@H](CCCNC(=N)N)C(=O)N[C@H](C(=O)NCC(=O)N[C@@H](CCCNC(=N)N)C(=O)N[C@@H](CCCNC(=N)N)C(=O)N[C@@H](CCCNC(=N)N)C(=O)N[C@@H](CCCNC(=N)N)C(N)=O)[C@@H](C)CC)[C@@H](C)CC)NC(=O)[C@H](CC(C)C)NC(=O)[C@H]([C@@H](C)CC)NC(=O)[C@H](CCCNC(=N)N)NC1=O [compound 20] (Ac-EAI[Nle(6-ylidene)]RIL[Nle(6-ylidene)]QLLFIHFRIGRRRR-NH2; staple 4-8)
CC50 (MTT cytotoxicity assay; [5]): 16 µM
× higher inhibition than compound 6S (HIV-1 IN [1]; [7]): 3–6 ×
